Patent US4364953A, “2-0- and 5-0-Substituted 1.4;3.6-dianhydrohexitol mononitrates and pharmaceutical composition” (Firma Willmar Schwabe, priority 1980, dated 1982)
Where two headings read alike, the source gives them in different places.

Experiments:
[1] = tested on: isolated guinea pig hearts; test: Experiments on the Langendorff heart (isolated guinea pig hearts); details: Cavia porcellus, 25 μg./ml. test substance in 50 ml. tyrode solution, average of 3-6 hearts
in vivo = details: mouse, iv, Evaluated LD50 -range, mice, as hydrochloride
Procedure: (§1) The compounds were injected to at least 3 animals per dose. If no animal had yet been died following to the highest dose which was administered, no more doses of substances were tested. In case of doubt, the examination was repeated with at least 3 more animals applying the same dose.
(§2) The rate of death within 24 hours after administration was observed.

female NMRI-albino mice = test: Acute toxicity, intravenous, female NMRI-albino mice; details: for Frequency of death with an intravenous dose of 100 mg/kg: 100 mg/kg i.v. as hydrochloride in physiological saline; for Frequency of death with an intravenous dose of 100 mg/kg / Frequency of death with an intravenous dose of 200 mg/kg: death within 24 hours, dead/treated; for Frequency of death with an intravenous dose of 200 mg/kg: 200 mg/kg i.v. as hydrochloride in physiological saline
Procedure: as §1, §2

narcotised guinea pigs = test: Blood pressure experiments on the narcotised guinea pig (i.v.); details: for blood pressure afterwards: after administration; for blood pressure previously: before administration (baseline); for blood pressure-lowering effectiveness compared with ISMN and ISDN: in words, guinea pig i.v., Table III
mongrel cats = test: Heart-circulation effectiveness in narcotised mongrel cats, intraduodenal administration; details: 5 mg/kg intraduodenal, cat
Procedure: The animals were narcotised with a mixture of chloralose-urethane (1.2 g./kg. urethane+40 mg./kg chloralose administered i.p.). They breathed spontaneously through a tracheal canula. The A. carotis was used in order to place a catheter tip manometer in the left heart chamber. The V. jugularis served for injection purposes. Via the A. femoralis, a catheter was inserted into the Aorta descendans and attached to a pressure recorder (Statham P 23 Db). The heart frequency was recorded with a pulse frequency measurer (firm Hugo Sachs Elektronik) from the left ventricular pressure signal. A duodenal loop was exposed by laparotomy. The substances to be tested were injected directly into the lumen.

[2] = tested on: isolated rat aorta preparations
Source text: Here, too, ISDN and ISMN were chosen as comparison compounds.

[3] = read-out: flowthrough, percentage change in comparison with the initial value
[4] = read-out: frequency, percentage change in comparison with the initial value
[5] = read-out: inotropism, percentage change in comparison with the initial value
[6] = 0 min (baseline), average ± standard error, 6 animals
[7] = read-out: noradrenaline spasm, […]
[8] = read-out: potassium chloride spasm, […]

SMILES: O=C(O[C@@H]1CO[C@H]2[C@@H]1OC[C@@H]2O[N+](=O)[O-])c1cccnc1 [Example 5b, 1.4;3.6-Dianhydro-D-glucitol 2-nitrate 5-nicotinate]
- activation at 25 µg/mL [1, 3]: 23.6%
- activation at 25 µg/mL [1, 4]: -9.13%
- activation at 25 µg/mL [1, 5]: 15.8%
- LD50 at 24 h (in vivo): > 100 mg/kg
- Frequency of death with an intravenous dose of 100 mg/kg (female NMRI-albino mice): 0/6
- blood pressure Δ (narcotised guinea pigs; 0.25 mg/kg i.v.): -7.70 mm.Hg
- blood pressure afterwards (narcotised guinea pigs; 0.25 mg/kg i.v.): 55.00 ± 1.00 mm.Hg
- blood pressure previously (narcotised guinea pigs; 0.25 mg/kg i.v.): 62.70 ± 3.00 mm.Hg
- blood pressure Δ (narcotised guinea pigs; 1.00 mg/kg i.v.): -18.00 mm.Hg
- blood pressure afterwards (narcotised guinea pigs; 1.00 mg/kg i.v.): 44.30 ± 0.90 mm.Hg
- blood pressure previously (narcotised guinea pigs; 1.00 mg/kg i.v.): 62.30 ± 4.10 mm.Hg
- blood pressure Δ (narcotised guinea pigs; 2.50 mg/kg i.v.): -28.00 mm.Hg
- blood pressure afterwards (narcotised guinea pigs; 2.50 mg/kg i.v.): 33.30 ± 0.70 mm.Hg
- blood pressure previously (narcotised guinea pigs; 2.50 mg/kg i.v.): 61.30 ± 4.90 mm.Hg
- blood pressure-lowering effectiveness compared with ISMN and ISDN (narcotised guinea pigs): actions similar to those of ISDN
- blood pressure (mongrel cats; [6]): 123.5 ± 7.3 mm.Hg
- dp/dt (inotropism) (mongrel cats; [6]): 10625 ± 2083 mm.sec.
- heart frequency (mongrel cats; [6]): 211.5 ± 19.3 min⁻¹
- blood pressure (mongrel cats; 10 min after admin.): 98.3 ± 6.2 mm.Hg
- dp/dt (inotropism) (mongrel cats; 10 min after admin.): 8050 ± 1204 mm.sec.
- heart frequency (mongrel cats; 10 min after admin.): 209.5 ± 19.2 min⁻¹
- blood pressure Δ (mongrel cats; 10 min versus 0 min): -25.2 mm.Hg
- dp/dt Δ (mongrel cats; 10 min versus 0 min): -2575 mm.sec.
- blood pressure (mongrel cats; 30 min after admin.): 94.8 ± 7.2 mm.Hg
- dp/dt (inotropism) (mongrel cats; 30 min after admin.): 7975 ± 1216 mm.sec.
- heart frequency (mongrel cats; 30 min after admin.): 212.5 ± 21.6 min⁻¹
- blood pressure Δ (mongrel cats; 30 min versus 0 min): -28.7 mm.Hg
- dp/dt Δ (mongrel cats; 30 min versus 0 min): -2650 mm.sec.
- blood pressure (mongrel cats; 60 min after admin.): 93.8 ± 7.8 mm.Hg
- dp/dt (inotropism) (mongrel cats; 60 min after admin.): 8275 ± 309 mm.sec.
- heart frequency (mongrel cats; 60 min after admin.): 225.0 ± 16.2 min⁻¹
- blood pressure Δ (mongrel cats; 60 min versus 0 min): -29.7 mm.Hg
- dp/dt Δ (mongrel cats; 60 min versus 0 min): -2350 mm.sec.
- blood pressure (mongrel cats; 120 min after admin.): 101.3 ± 11.2 mm.Hg
- dp/dt (inotropism) (mongrel cats; 120 min after admin.): 7500 ± 1022 mm.sec.
- heart frequency (mongrel cats; 120 min after admin.): 228.0 ± 15.6 min⁻¹
- blood pressure Δ (mongrel cats; 120 min versus 0 min): -22.2 mm.Hg
- dp/dt Δ (mongrel cats; 120 min versus 0 min): -3125 mm.sec.
- IC50 [2, 7]: 6.2 µM
- IC50 [2, 8]: 22.5 µM

SMILES: O=C(O[C@@H]1CO[C@H]2[C@@H]1OC[C@H]2O[N+](=O)[O-])c1cccnc1 [Example 8, 1.4;3.6-Dianhydro-D-mannitol 2-nitrate 5-nicotinate]
- LD50 at 24 h (in vivo): < 200 mg/kg
- Frequency of death with an intravenous dose of 100 mg/kg (female NMRI-albino mice): 0/6
- Frequency of death with an intravenous dose of 200 mg/kg (female NMRI-albino mice): 3/3
- Evaluated LD50 -range (female NMRI-albino mice; i.v., mice, as hydrochloride, 24 hours, 1440 min): > 100 mg/kg

SMILES: O=C(O[C@H]1CO[C@H]2[C@@H]1OC[C@H]2O[N+](=O)[O-])c1cccnc1 [Example 7b, 1.4;3.6-Dianhydro-D-glucitol 2-nicotinate 5-nitrate]
- LD50 at 24 h (in vivo): > 200 mg/kg
- Frequency of death with an intravenous dose of 200 mg/kg (female NMRI-albino mice): 0/6
- IC50 [2, 7]: 20 µM
- IC50 [2, 8]: 44 µM

SMILES: O=C(O[C@H]1CO[C@H]2[C@@H]1OC[C@@H]2O[N+](=O)[O-])c1cccnc1 [Example 2b, 1.4;3.6-Dianhydro-L-iditol 2-nitrate 5-nicotinate]
- activation at 25 µg/mL [1, 3]: 35.4%
- activation at 25 µg/mL [1, 4]: 0%
- activation at 25 µg/mL [1, 5]: 3.36%
- LD50 at 24 h (in vivo): ≥ 200 mg/kg
- Frequency of death with an intravenous dose of 100 mg/kg (female NMRI-albino mice): 0/6
- Frequency of death with an intravenous dose of 200 mg/kg (female NMRI-albino mice): 2/6
- blood pressure Δ (narcotised guinea pigs; 0.25 mg/kg i.v.): -11.40 mm.Hg
- blood pressure afterwards (narcotised guinea pigs; 0.25 mg/kg i.v.): 47.30 ± 2.60 mm.Hg
- blood pressure previously (narcotised guinea pigs; 0.25 mg/kg i.v.): 58.70 ± 4.30 mm.Hg
- blood pressure Δ (narcotised guinea pigs; 1.00 mg/kg i.v.): -15.60 mm.Hg
- blood pressure afterwards (narcotised guinea pigs; 1.00 mg/kg i.v.): 42.70 ± 1.80 mm.Hg
- blood pressure previously (narcotised guinea pigs; 1.00 mg/kg i.v.): 58.30 ± 2.00 mm.Hg
- blood pressure Δ (narcotised guinea pigs; 2.50 mg/kg i.v.): -20.70 mm.Hg
- blood pressure afterwards (narcotised guinea pigs; 2.50 mg/kg i.v.): 33.00 ± 1.00 mm.Hg
- blood pressure previously (narcotised guinea pigs; 2.50 mg/kg i.v.): 53.70 ± 3.30 mm.Hg
- blood pressure-lowering effectiveness compared with ISMN and ISDN (narcotised guinea pigs): actions similar to those of ISDN
- IC50 [2, 7]: 0.28 µM
- IC50 [2, 8]: 3.1 µM

SMILES: O=[N+]([O-])O[C@H]1CO[C@H]2[C@@H]1OC[C@@H]2Oc1ccc(Cl)cc1 [Example 1c, 5-O-(4-Chlorophenyl)-1.4;3.6-dianhydro-L-iditol 2-nitrate]
- activation at 25 µg/mL [1, 3]: 19.8%
- activation at 25 µg/mL [1, 4]: 2.89%
- activation at 25 µg/mL [1, 5]: 12.2%
- blood pressure Δ (narcotised guinea pigs; 0.25 mg/kg i.v.): -1.60 mm.Hg
- blood pressure afterwards (narcotised guinea pigs; 0.25 mg/kg i.v.): 59.70 ± 2.40 mm.Hg
- blood pressure previously (narcotised guinea pigs; 0.25 mg/kg i.v.): 61.30 ± 2.60 mm.Hg
- blood pressure Δ (narcotised guinea pigs; 1.00 mg/kg i.v.): -15.00 mm.Hg
- blood pressure afterwards (narcotised guinea pigs; 1.00 mg/kg i.v.): 46.90 ± 1.20 mm.Hg
- blood pressure previously (narcotised guinea pigs; 1.00 mg/kg i.v.): 61.90 ± 1.90 mm.Hg
- blood pressure Δ (narcotised guinea pigs; 2.50 mg/kg i.v.): -23.00 mm.Hg
- blood pressure afterwards (narcotised guinea pigs; 2.50 mg/kg i.v.): 37.60 ± 1.00 mm.Hg
- blood pressure previously (narcotised guinea pigs; 2.50 mg/kg i.v.): 60.60 ± 1.80 mm.Hg
- IC50 [2, 7]: 0.14 µM
- IC50 [2, 8]: 3.18 µM

SMILES: CS(=O)(=O)O[C@@H]1CO[C@H]2[C@@H]1OC[C@@H]2O[N+](=O)[O-] [Example 4, 1.4;3.6-Dianhydro-D-glucitol 2-nitrate 5-methanesulphonate]
- activation at 25 µg/mL [1, 3]: 44.3%
- activation at 25 µg/mL [1, 4]: 0%
- activation at 25 µg/mL [1, 5]: 0%
- IC50 [2, 7]: 2.2 µM
- IC50 [2, 8]: 2.8 µM
